Measured values taken from US12173026B2, “PRMT5 inhibitors” (Merck Sharp & Dohme LLC, priority 2018, dated 2024).
Where a name gives a salt, the structure may show the parent alone.

The compounds below were run on symmetric dimethylation of arginine (SDMA) of PRMT5 substrates in MCF-7 cells (assay: PRMT5 Cell Target Engagement (TE) Assay). Conditions: Homo sapiens, MCF7, 72 h; MCF-7 cells treated for 3 days; nuclear SDMA by high content imaging; top concentration 10000 nM.
Format: cell-based
Excerpt: PRMT5 Cell Target Engagement (TE) Assay
The PRMT5 TE assay is a biomarker assay for identifying compounds that inhibit symmetric dimethylation of arginine (SDMA) of PRMT5 substrates. The following substrates have been reported for PRMT5: Histone H2A and H4 R3, Histone H3 R2, Histone 1-13 R8, spliceosome Sm proteins, ribosomal protein RPS10, p53, FEN1, nucleoplasmin, nucleolin, EGFR and EBNA. The assay will focus on detecting symnetrically dimethylated nuclear proteins using high content imaging technology. Detection of the expression of symmetrically dimethylated nuclear proteins is through a mixture of primary rabbit monoclonal antibodies to SDMA (CST 13222) which in turn recognized by an Alexafluor 488 dye-conjugated anti-rabbit IgG secondary antibody. The IN Cell Analyzer 2200 or Opera-Phenix measures nuclear Alexafluor 488 fluorescent dye intensity that is directly related to the level of expression of symmetrically dimethylated nuclear proteins at the single cell level. Nuclear AF488 dye intensities are compared to the mean value for DMSO treated cells (MIN) to report percent of inhibition for each compound-treated well.
In this assay, the cell potency (EC50) of each compound was determined from a ten point (1:3 serial dilution; top compound concentration of 10000 nM) titration curve using the following outlined procedure. Each well of a BD falcon collagen coated black/clear bottom 384-well plate was seeded with 4000 MCF-7 cells in 30 pal media and allowed to attach for 5 hours. Media is ATCC-formulated Eagle's Minimum Essential Medium, Catalog No. 30-2003. The following components were added to the base medium: 0.01 mg/mL human recombinant insulin; fetal bovine serum to a final concentration of 10%. Additional 30 pal of media containing 2× compounds were added to each well. Cells were treated for 3 days in 37° C. CO2 incubator. On day 3, cells were fixed with Cytofix, permeabilized with 0.4% Triton-X-100/Cytofix, and washed with D-PBS without Ca/Mg. Cells were blocked with Licor Odessey blocking reagent for 1 hour at room temperature, followed by incubation with anti-SDMA (1:1000) antibody at 4° C. overnight. 1° antibody was removed, followed by three washings with DPBS without Ca/Mg and 0.05% Tween20. Hoechst (5 μg/mL), Cell Mask deep stain (1:2000) and Alexa488-conjugated goat anti-rabbit IgG (2 μg/mL) was added for 1 hour at room temperature. A final washing step (three washes) was performed before sealing plate for imaging on in Cell Analyzer 2200 or Opera-Phenix. Images from analyzer were uploaded to Columbus for image analysis. IC50 values were determined by 4 parameters robust fit of percent fluorescence units vs. (Log 10) compound concentrations.

| EC50 [nM] | SMILES |
| --- | --- |
| 3.9 | Nc1nc2cc(C[C@H]3[C@H]4O[C@@H](n5cc(F)c6c(N)ncnc65)[C@H](O)[C@@]4(O)C[C@@H]3F)ccc2cc1F [Example 55, (2R,3R,3aS,5S,6S,6aR)-2-(4-amino-5-fluoro-7H-pyrrolo[2,3-d]pyrimidin-7-yl)-6-[(2-amino-3-fluoroquinolin-7-yl)methyl]-5-fluorohexahydro-3aH-cyclopenta[b]furan-3,3a-diol,2,2,2-trifluoroethanol] |
| 1 | Nc1nc2cc(O[C@H]3CC[C@@]4(O)[C@@H]3O[C@@H](n3cc(F)c5c(N)ncnc53)[C@@H]4O)ccc2cc1Cl [Example 74, (2R,3R,3aS,6S,6aR)-6-((2-amino-3-chloroquinolin-7-yl)oxy)-2-(4-amino-5-fluoro-7H-pyrrolo[2,3-d]pyrimidin-7-yl)hexahydro-3aH-cyclopenta[b]furan-3,3a-diol] |
| 10000 | COc1ncnc2c1ccn2[C@@H]1O[C@](C)(COc2ccc3cc(Br)c(N)nc3c2)[C@@H](O)[C@H]1O [Example 12, (2R,3S,4R,5R)-2-(((2-amino-3-bromoquinolin-7-yl)oxy)methyl)-5-(4-methoxy-7H-pyrrolo[2,3-d]pyrimidin-7-yl)-2-methyltetrahydrofuran-3,4-diol] |
| 2.7 | Cc1ncnc2c1ccn2[C@@H]1O[C@@H]2[C@H](Cc3ccc4cc(Br)c(N)nc4c3)OC[C@]2(O)[C@H]1O [Example 133] |
| 5.6 | Cc1nc(N)c2ccn([C@@H]3O[C@@H]4[C@@H](Oc5ccc6cc(Br)c(N)nc6c5)CC[C@]4(O)[C@H]3O)c2n1 [Example 63, (2R,3R,3aS,6S,6aR)-2-(4-amino-2-methyl-7H-pyrrolo[2,3-d]pynmidin-7-yl)-6-((2-amino-3-bromoquinolin-7-yl)oxy)hexahydro-3aH-cyclopenta[b]furan-3,3a-diol] |
| 2.9 | C[C@]1(CCc2ccc3cc4c(nc3c2)NCC4)C[C@@H](n2ccc3c(N)ncnc32)[C@H](O)[C@@H]1O [Example 126, (1S,2R,3S,5R)-5-(4-amino-7H-pyrrolo[2,3-d]pyrimidin-7-yl)-3-(2-(2,3-dihydro-1H-pyrrolo[2,3-b]quinolin-7-yl)ethyl)-3-methylcyclopentane-1,2-diol] |
| 30 | Cc1ncnc2c1ccn2[C@@H]1O[C@@H]2[C@H](Cc3ccc4cc(Cl)c(N)nc4c3F)CC[C@]2(O)[C@H]1O [Example 22, (2R,3R,3aS,6S,6aR)-6-[(2-amino-3-chloro-8-fluoroquinolin-7-yl)methyl]-2-(4-methyl-7H-pyrrolo[2,3-d]pyrimidin-7-yl)hexahydro-3aH-cyclopenta[b]furan-3,3a-diol] |
| 0.5 | Cc1cc2ccc(OC[C@H]3C[C@@H](n4ccc5c(C)ncnc54)[C@H](O)[C@]3(C)O)cc2nc1N [Example 106, (1R,2S,3R,5R)-5-(((2-amino-3-methylquinolin-7-yl)oxy)methyl)-1-methyl-3-(4-methyl-7H-pyrrolo[2,3-d]pyrimidin-7-yl)cyclopentane-1,2-diol] |
| 1 | C[C@]1(COc2ccc3ccc(N)nc3c2)C[C@@H](n2ccc3c(N)ncnc32)[C@H](O)[C@@H]1O [Example 101, (1S,2R,3R,5R)-5-(4-amino-7H-pyrrolo[2,3-d]pyrimidin-7-yl)-3-(((2-aminoquinolin-7-yl)oxy)methyl)-3-methylcyclopentane-1,2-diol] |
| 4.5 | Nc1nc2cc(C[C@H]3[C@H]4O[C@@H](n5ccc6c(N)ncnc65)[C@H](O)[C@@]4(O)CC3(F)F)ccc2cc1F [Example 53, (2R,3R,3aS,6S,6aR)-6-[(2-amino-3-fluoroquinolin-7-yl)methyl]-2-(4-amino-7H-pyrrolo[2,3-d]pyrimidin-7-yl)-5,5-difluorohexahdro-3aH-cyclopenta[b]furan-3,3a-diol] |
| 0.9 | Cc1ncnc2c1ccn2[C@@H]1C[C@@H]2[C@H](Cc3ccc4cc(F)c(N)nc4c3)CC[C@]2(O)[C@H]1O [Example 16, (1S,2R,3aR,4S,6aR)-4-((2-amino-fluoroquinolin-7-yl)methyl)-2-(4-methyl-7H-pyrrolo[2,3-d]pyrimidin-7-yl)hexahydropentalene-1,6a(1H)-diol] |
| 0.6 | Cc1nc(N)c2ccn([C@@H]3C[C@@H]4[C@H](Cc5ccc6cc(Br)c(N)nc6c5)CC[C@]4(O)[C@H]3O)c2n1 [Example 37, (1S,2R,3aR,4S,6aR)-2-(4-amino-2-methyl-7H-pyrrolo[2,3-d]pyrimidin-7-yI)-4-((2-amino-3-bromoquinolin-7-yl)methyl)hexahydropentalene-1,6a(1H)-diol] |
| 13.6 | Cc1ncnc2c1ccn2[C@@H]1O[C@@H]2[C@@H](Oc3ccc4cc(C(F)F)c(N)nc4c3)CC[C@]2(O)[C@H]1O [Example 115, (2R,3R,3aS,6S,6aR)-6-((2-amino-3-(difluoromethyl)quinolin-7-yl)oxy)-2-(4-methyl-7H-pyrrolo[2,3-d]pyrimidin-7-yl)hexahydro-3aH-cyclopenta[b]furan-3,3a-diol] |
| 5.9 | Cc1ncnc2c1ccn2[C@@H]1C[C@](C)(CCc2ccc3cc(Br)c(N)nc3c2)[C@@H](O)[C@H]1O [Example 109, (1S,2R,3S,5R)-3-(2-(2-amino-3-bromoquinolin-7-yl)ethyl)-3-methyl-5-(4-methyl-7H-pyrrolo[2,3-d]pyrimidin-7-yl)cyclopentane-1,2-diol] |
| 0.8 | Nc1nc2cc(C[C@@H]3CC[C@@]4(O)[C@@H]3O[C@@H](n3ccc5c(N)ncnc53)[C@@H]4O)ccc2cc1C(F)F [Example 137, (2R,3R,3aS,6S,6aR)-6-((2-amino-3-(difluoromethyl)quinolin-7-yl)methyl)-2-(4-amino-7H-pyrrolo[2,3-d]pyrimidin-7-yl)hexahydro-2H-cyclopenta[b]furan-3,3a-diol] |
| 0.7 | Cc1cc2ccc(C[C@@H]3CC[C@@]4(O)[C@@H]3O[C@@H](n3ccc5c(N)ncnc53)[C@@H]4O)cc2nc1N [Example 125, (2R,3R,3aS,6S,6aR)-6-((2-amino-3-methylquinolin-7-yl)methyl)-2-(4-amino-7H-pyrrolo[2,3-d]pyrimidin-7-yl)hexahydro-3aH-cyclopenta[b]furan-3,3a-diol] |
| 97 | Cc1nc(C)c2ccn([C@@H]3O[C@@H]4[C@@H](Oc5ccc6cc(Br)c(N)nc6c5)CC[C@]4(O)[C@H]3O)c2n1 [Example 80, (2R,3R,3aS,6S,6aR)-6-((2-amino-3-bromoquinolin-7-yl)oxy)-2-(2,4-dimethyl-7H-pyrrolo[2,3-d]pyrimidin-7-yl)hexahydro-3aH-cyclopenta[b]furan-3,3a-diol 2,2,2-trifluoroacetate] |
| 1 | Nc1nc2cc(C[C@@H]3CC[C@@]4(O)[C@@H]3O[C@@H](n3cc(C(F)F)c5c(N)ncnc53)[C@@H]4O)ccc2cc1Br [Example 43, (2R,3R,3aS,6S,6aR)-6-[(2-amino-3-bromoquinolin-7-yl)methyl]-2-[4-amino-5-(difluoromethyl)-7H-pyrrolo[2,3-d]pyrimidin-7-yl]hexahydro-3aH-cyclopenta[b]furan-3,3a-diol] |
| 13 | Nc1nc2nc(C[C@@H]3CC[C@@]4(O)[C@@H]3O[C@@H](n3ccc5c(N)ncnc53)[C@@H]4O)ccc2cc1Cl [Example 28, (2R,3R,3aS,6S,6aR)-6-(7-amino-6-chloro-1,8-naphthyridin-2-yl)methyl)-2-(4-amino-7H-pyrrolo[2,3-d]pyrimidin-7-yl)hexahydro-3aH-cyclopenta[b]furan-3,3a-diol trihydrochloride] |
| 3.2 | Cc1nc(N)c2ccn([C@@H]3O[C@@H]4[C@H](Cc5ccc6cc(Br)c(N)nc6c5)CC[C@]4(O)[C@H]3O)c2n1 [Example 61, (2R,3R,3aS,6S,6aR)-2-(4-amino-2-methyl-7H-pyrrolo[2,3-d]pyrimidin-7-yl)-6-((2-amino-3 bromoquinolin-7-yl)methyl)hexahydro-3aH-cyclopenta[b]furan-3,3a-diol] |
| 2 | Cc1ncnc2c1ccn2[C@@H]1O[C@@H]2[C@@H](Nc3ccc4cc(F)c(N)nc4c3)CC[C@]2(O)[C@H]1O [Example 120, (2R,3R,3aS,6S,6aR)-6-(2-amino-3-fluoroquinolin-7-yl)amino-2-(4-methyl-7H-pyrrolo[2,3-d]pyrimidin-7-yl)hexahydro-3aH-cyclopenta[b]furan-3,3a-diol] |
| 18 | C[C@@]1(O)[C@@H](COc2ccc3cc(Br)c(N)nc3c2)C[C@@H](n2ccc3c(Cl)ncnc32)[C@@H]1O [Example 1] |
